Key:
Assay in all cases: biochemical
[1] = target: T1, 371 kinases (kinase named in each endpoint) (Homo sapiens, UniProt O00506); conditions: STK25/YSK1
T1 construct: purchased Reaction Biology

[2] = target: T2, 371 kinases (kinase named in each endpoint) (Homo sapiens, UniProt O14578); conditions: STK21/CIT
T2 construct: purchased Reaction Biology

[3] = target: T3, 371 kinases (kinase named in each endpoint) (Homo sapiens, UniProt O15530); conditions: PDK1/PDPK1
T3 construct: purchased Reaction Biology

[4] = target: T4, 371 kinases (kinase named in each endpoint) (Homo sapiens, UniProt O43187); conditions: IRAK2
T4 construct: purchased Reaction Biology

[5] = target: T5, 371 kinases (kinase named in each endpoint) (Homo sapiens, UniProt O43318); conditions: TAK1
T5 construct: purchased Reaction Biology
T5 sequence (O43318 whole entry): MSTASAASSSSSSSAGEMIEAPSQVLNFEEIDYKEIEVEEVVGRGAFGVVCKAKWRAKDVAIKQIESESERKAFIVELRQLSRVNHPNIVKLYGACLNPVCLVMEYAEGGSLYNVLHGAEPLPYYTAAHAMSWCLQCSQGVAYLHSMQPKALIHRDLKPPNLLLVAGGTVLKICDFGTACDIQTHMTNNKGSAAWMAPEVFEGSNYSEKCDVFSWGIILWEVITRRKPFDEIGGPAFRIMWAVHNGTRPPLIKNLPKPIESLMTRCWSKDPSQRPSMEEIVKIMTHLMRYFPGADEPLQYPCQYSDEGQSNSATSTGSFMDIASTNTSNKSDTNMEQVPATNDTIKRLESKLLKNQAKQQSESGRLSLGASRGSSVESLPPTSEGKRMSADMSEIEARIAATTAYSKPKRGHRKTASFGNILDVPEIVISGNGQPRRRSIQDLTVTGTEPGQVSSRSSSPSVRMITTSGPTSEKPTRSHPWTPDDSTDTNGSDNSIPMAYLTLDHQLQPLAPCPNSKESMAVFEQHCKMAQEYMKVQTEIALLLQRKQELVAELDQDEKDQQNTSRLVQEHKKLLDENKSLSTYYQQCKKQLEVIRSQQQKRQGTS

[6] = target: T6, 371 kinases (kinase named in each endpoint) (Homo sapiens, UniProt O43781); conditions: DYRK3
T6 construct: purchased Reaction Biology

[7] = target: T7, 371 kinases (kinase named in each endpoint) (Homo sapiens, UniProt O95819); conditions: HGK/MAP4K4
T7 construct: purchased Reaction Biology

[8] = target: T8, 371 kinases (kinase named in each endpoint) (Homo sapiens, UniProt P07949); conditions: RET
T8 construct: purchased Reaction Biology

[9] = target: T9, 371 kinases (kinase named in each endpoint) (Homo sapiens, UniProt P17948); conditions: FLT1/VEGFR1
T9 construct: purchased Reaction Biology

[10] = target: T10, 371 kinases (kinase named in each endpoint) (Homo sapiens, UniProt P28482); conditions: ERK2/MAPK1
T10 construct: purchased Reaction Biology

[11] = target: T11, 371 kinases (kinase named in each endpoint) (Homo sapiens, UniProt P29320); conditions: EPHA3
T11 construct: purchased Reaction Biology
T11 sequence (P29320 21-983): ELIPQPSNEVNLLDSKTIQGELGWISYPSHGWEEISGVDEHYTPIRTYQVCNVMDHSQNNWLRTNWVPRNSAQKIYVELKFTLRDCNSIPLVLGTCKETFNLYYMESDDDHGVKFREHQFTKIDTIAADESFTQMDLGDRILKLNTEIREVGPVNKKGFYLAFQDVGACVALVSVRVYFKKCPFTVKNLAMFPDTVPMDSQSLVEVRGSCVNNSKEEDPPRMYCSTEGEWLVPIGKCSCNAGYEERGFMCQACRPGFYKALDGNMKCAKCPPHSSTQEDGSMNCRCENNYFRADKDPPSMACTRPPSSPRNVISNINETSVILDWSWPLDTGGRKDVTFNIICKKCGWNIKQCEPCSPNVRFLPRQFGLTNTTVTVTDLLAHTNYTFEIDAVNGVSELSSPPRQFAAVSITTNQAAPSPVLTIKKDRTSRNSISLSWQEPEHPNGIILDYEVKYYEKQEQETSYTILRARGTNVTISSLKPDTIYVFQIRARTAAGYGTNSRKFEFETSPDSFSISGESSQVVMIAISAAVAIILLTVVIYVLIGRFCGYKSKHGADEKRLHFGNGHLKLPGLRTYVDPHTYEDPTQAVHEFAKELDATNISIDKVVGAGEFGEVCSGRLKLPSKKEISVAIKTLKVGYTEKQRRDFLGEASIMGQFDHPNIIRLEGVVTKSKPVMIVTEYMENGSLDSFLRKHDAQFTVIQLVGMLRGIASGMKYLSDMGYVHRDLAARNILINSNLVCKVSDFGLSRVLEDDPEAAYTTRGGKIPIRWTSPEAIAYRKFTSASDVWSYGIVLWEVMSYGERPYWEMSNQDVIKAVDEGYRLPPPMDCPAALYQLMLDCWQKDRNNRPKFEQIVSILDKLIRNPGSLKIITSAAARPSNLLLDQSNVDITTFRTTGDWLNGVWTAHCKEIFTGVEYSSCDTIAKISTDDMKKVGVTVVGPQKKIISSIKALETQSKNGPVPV

[12] = target: T12, 371 kinases (kinase named in each endpoint) (Homo sapiens, UniProt P30530); conditions: AXL
T12 construct: purchased Reaction Biology

[13] = target: T13, 371 kinases (kinase named in each endpoint) (Homo sapiens, UniProt P49674); conditions: CK1EPSILON
T13 construct: purchased Reaction Biology

[14] = target: T14, 371 kinases (kinase named in each endpoint) (Homo sapiens, UniProt P51451); conditions: BLK
T14 construct: purchased Reaction Biology

[15] = target: T15, 371 kinases (kinase named in each endpoint) (Homo sapiens, UniProt P54762); conditions: EPHB1
T15 construct: purchased Reaction Biology

[16] = target: T16, 371 kinases (kinase named in each endpoint) (Homo sapiens, UniProt P57059); conditions: SIK1
T16 construct: purchased Reaction Biology

[17] = target: T17, 371 kinases (kinase named in each endpoint) (Homo sapiens, UniProt P68400); conditions: CK2A
T17 construct: purchased Reaction Biology

[18] = target: T18, 371 kinases (kinase named in each endpoint) (Homo sapiens, UniProt Q00534)
T18 construct: purchased Reaction Biology
T18 sequence (Q00534 whole entry): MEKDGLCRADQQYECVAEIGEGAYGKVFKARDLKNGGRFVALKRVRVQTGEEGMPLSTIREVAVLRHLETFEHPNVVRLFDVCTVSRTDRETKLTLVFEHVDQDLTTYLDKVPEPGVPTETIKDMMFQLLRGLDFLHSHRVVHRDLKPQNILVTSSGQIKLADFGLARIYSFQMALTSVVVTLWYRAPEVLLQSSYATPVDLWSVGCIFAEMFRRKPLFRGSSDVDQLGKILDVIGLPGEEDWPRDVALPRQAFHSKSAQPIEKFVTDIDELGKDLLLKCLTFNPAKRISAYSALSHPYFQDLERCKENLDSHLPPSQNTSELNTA

[19] = target: T19, 371 kinases (kinase named in each endpoint) (Homo sapiens, UniProt Q04759); conditions: PKCTHETA
T19 construct: purchased Reaction Biology

[20] = target: T20, 371 kinases (kinase named in each endpoint) (Homo sapiens, UniProt Q12866); conditions: C-MER
T20 construct: purchased Reaction Biology
T20 sequence (Q12866 21-999): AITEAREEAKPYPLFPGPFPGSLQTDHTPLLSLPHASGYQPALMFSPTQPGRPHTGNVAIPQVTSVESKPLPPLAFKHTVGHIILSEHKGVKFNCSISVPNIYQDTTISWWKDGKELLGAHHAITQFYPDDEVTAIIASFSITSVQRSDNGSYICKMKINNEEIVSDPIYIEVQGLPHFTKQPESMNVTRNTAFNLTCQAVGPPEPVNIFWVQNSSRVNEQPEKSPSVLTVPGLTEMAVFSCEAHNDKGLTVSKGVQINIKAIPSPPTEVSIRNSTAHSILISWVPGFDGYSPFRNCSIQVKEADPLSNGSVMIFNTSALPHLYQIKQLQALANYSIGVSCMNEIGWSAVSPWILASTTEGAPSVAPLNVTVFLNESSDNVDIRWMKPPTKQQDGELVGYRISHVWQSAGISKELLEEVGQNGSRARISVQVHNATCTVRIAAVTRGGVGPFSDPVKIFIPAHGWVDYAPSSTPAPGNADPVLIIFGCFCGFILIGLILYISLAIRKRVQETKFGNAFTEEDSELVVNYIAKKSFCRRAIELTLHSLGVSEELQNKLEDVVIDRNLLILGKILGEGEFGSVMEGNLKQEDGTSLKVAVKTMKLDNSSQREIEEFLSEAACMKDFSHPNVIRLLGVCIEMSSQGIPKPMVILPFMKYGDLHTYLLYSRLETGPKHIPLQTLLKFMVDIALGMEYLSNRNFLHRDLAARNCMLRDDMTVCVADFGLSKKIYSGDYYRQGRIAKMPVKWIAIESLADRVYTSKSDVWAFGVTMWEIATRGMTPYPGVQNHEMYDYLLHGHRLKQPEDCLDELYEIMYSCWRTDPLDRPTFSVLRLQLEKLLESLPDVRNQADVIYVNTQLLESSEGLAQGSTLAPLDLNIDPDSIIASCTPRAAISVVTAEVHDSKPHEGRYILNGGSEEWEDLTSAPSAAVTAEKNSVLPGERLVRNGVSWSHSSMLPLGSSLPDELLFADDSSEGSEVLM

[21] = target: T21, 371 kinases (kinase named in each endpoint) (Homo sapiens, UniProt Q13043); conditions: MST1/STK4
T21 construct: purchased Reaction Biology

[22] = target: T22, 371 kinases (kinase named in each endpoint) (Homo sapiens, UniProt Q13470); conditions: TNK1
T22 construct: purchased Reaction Biology

[23] = target: T23, 371 kinases (kinase named in each endpoint) (Homo sapiens, UniProt Q15349); conditions: RSK3
T23 construct: purchased Reaction Biology

[24] = target: T24, 371 kinases (kinase named in each endpoint) (Homo sapiens, UniProt Q16816); conditions: PHKG1
T24 construct: purchased Reaction Biology

[25] = target: T25, 371 kinases (kinase named in each endpoint) (Homo sapiens, UniProt Q6PHR2); conditions: ULK3
T25 construct: purchased Reaction Biology

[26] = target: T26, 371 kinases (kinase named in each endpoint) (Homo sapiens, UniProt Q6VAB6); conditions: KSR2
T26 construct: purchased Reaction Biology

[27] = target: T27, 371 kinases (kinase named in each endpoint) (Homo sapiens, UniProt Q86YV6); conditions: MYLK4
T27 construct: purchased Reaction Biology
T27 sequence (Q86YV6 whole entry): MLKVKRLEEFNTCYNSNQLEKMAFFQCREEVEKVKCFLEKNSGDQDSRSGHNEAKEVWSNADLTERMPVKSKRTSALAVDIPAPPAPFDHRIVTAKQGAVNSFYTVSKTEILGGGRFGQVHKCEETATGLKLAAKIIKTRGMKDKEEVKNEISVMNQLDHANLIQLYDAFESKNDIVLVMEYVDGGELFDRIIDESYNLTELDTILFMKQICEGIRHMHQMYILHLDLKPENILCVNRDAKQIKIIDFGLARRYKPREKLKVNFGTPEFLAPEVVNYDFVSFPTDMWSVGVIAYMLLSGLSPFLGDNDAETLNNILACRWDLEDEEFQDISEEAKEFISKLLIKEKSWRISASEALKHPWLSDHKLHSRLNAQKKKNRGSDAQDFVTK

[28] = target: T28, 371 kinases (kinase named in each endpoint) (Homo sapiens, UniProt Q8IU85); conditions: CAMK1D
T28 construct: purchased Reaction Biology

[29] = target: T29, 371 kinases (kinase named in each endpoint) (Homo sapiens, UniProt Q8TDC3); conditions: BRSK1
T29 construct: purchased Reaction Biology

[30] = target: T30, 371 kinases (kinase named in each endpoint) (Homo sapiens, UniProt Q8WXR4); conditions: MYO3B
T30 construct: purchased Reaction Biology

[31] = target: T31, 371 kinases (kinase named in each endpoint) (Homo sapiens, UniProt Q9BYP7); conditions: WNK3
T31 construct: purchased Reaction Biology
T31 sequence (Q9BYP7 whole entry): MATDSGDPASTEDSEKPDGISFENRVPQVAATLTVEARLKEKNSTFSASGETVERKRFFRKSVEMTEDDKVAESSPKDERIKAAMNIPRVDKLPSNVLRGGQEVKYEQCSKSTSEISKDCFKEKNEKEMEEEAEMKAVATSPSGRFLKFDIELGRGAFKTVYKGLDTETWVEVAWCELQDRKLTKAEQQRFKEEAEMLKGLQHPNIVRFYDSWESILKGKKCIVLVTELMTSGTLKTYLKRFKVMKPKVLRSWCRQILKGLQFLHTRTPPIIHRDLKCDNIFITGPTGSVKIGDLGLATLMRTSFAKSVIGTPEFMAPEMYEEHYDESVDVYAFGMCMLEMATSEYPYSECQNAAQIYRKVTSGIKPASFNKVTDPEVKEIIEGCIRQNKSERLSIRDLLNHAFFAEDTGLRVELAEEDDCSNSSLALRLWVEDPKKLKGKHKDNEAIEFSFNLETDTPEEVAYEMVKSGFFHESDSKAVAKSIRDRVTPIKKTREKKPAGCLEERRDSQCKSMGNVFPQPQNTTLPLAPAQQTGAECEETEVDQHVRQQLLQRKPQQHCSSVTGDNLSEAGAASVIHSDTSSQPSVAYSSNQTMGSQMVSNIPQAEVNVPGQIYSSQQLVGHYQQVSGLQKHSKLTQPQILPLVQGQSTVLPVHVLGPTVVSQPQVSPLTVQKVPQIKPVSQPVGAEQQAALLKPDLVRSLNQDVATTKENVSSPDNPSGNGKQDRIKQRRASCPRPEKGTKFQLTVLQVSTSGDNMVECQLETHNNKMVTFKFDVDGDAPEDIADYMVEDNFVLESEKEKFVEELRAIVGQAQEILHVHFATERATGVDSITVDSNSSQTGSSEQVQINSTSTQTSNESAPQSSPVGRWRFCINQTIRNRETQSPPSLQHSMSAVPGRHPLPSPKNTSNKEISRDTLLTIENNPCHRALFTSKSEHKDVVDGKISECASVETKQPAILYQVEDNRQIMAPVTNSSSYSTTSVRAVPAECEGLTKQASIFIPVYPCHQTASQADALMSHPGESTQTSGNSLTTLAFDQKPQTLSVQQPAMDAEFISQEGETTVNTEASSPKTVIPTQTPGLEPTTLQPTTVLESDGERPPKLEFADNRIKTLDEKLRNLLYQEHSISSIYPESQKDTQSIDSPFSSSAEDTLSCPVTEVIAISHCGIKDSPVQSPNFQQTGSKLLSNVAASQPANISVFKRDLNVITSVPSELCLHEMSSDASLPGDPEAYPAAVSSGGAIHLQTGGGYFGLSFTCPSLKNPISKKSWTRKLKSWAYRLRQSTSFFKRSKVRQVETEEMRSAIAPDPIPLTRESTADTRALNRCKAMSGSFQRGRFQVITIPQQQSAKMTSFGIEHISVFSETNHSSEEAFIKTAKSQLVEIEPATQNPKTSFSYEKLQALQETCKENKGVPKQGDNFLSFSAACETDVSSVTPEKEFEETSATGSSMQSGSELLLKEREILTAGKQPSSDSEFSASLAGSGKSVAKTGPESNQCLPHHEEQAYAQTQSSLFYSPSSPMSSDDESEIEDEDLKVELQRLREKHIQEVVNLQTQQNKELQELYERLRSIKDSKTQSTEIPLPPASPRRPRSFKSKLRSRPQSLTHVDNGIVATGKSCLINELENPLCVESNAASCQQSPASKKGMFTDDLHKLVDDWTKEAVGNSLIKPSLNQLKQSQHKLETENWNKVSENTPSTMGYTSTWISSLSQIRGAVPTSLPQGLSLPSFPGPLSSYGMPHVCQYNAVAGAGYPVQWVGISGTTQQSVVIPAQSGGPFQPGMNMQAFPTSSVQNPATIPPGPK

[32] = target: T32, 371 kinases (kinase named in each endpoint) (Homo sapiens, UniProt Q9HBH9); conditions: MNK2
T32 construct: purchased Reaction Biology

[33] = target: T33, 371 kinases (kinase named in each endpoint) (Homo sapiens, UniProt Q9NRM7); conditions: LATS2
T33 construct: purchased Reaction Biology

[34] = target: T34, 371 kinases (kinase named in each endpoint) (Homo sapiens, UniProt Q9UBE8); conditions: NLK
T34 construct: purchased Reaction Biology

[35] = target: T35, 371 kinases (kinase named in each endpoint) (Homo sapiens, UniProt Q9UEW8); conditions: STK39/STLK3
T35 construct: purchased Reaction Biology

[36] = target: T36, 371 kinases (kinase named in each endpoint) (Homo sapiens, UniProt Q9UPZ9); conditions: LCK2/ICK
T36 construct: purchased Reaction Biology

O=C(O)c1cc(C(F)(F)F)ccc1NCCc1c[nH]c2cc(Br)ccc12 [Compound 5, 2-((2-(6-Bromo-1H-indol-3-yl)ethyl)amino)−5-(trifluoromethyl)benzoic Acid]
activity at 10 µM [1]: 124 ± 1.4%
activity at 10 µM [2]: 102.1 ± 0.3%
activity at 10 µM [3]: 97 ± 1%
activity at 10 µM [4]: 145 ± 0.9%
activity at 10 µM [5]: 92.1 ± 0.7%
activity at 10 µM [6]: 57.3 ± 2.4%
activity at 10 µM [7]: 50.4 ± 0.4%
activity at 10 µM [8]: 92.7 ± 3.3%
activity at 10 µM [9]: 85 ± 0.7%
activity at 10 µM [10]: 118 ± 3%
activity at 10 µM [11]: 99.7 ± 1.6%
activity at 10 µM [12]: 67.9 ± 1.8%
activity at 10 µM [13]: 60.1 ± 1.8%
activity at 10 µM [14]: 92.7 ± 1.3%
activity at 10 µM [15]: 91.2%
activity at 10 µM [16]: 69.3 ± 1%
activity at 10 µM [17]: 59.1 ± 0.1%
activity at 10 µM ([18]; CDK6/CYCLIN D1): 87.9 ± 0.1%
activity at 10 µM ([18]; CDK6/CYCLIN D2): 44.6 ± 0.5%
activity at 10 µM ([18]; CDK6/CYCLIN D3): 60.9 ± 1.2%
activity at 10 µM [19]: 95.5 ± 0.4%
activity at 10 µM [20]: 52.1 ± 1.5%
activity at 10 µM [21]: 89.6 ± 2.7%
activity at 10 µM [22]: 94.4 ± 0.5%
activity at 10 µM [23]: 87 ± 1.4%
activity at 10 µM [24]: 87 ± 2.6%
activity at 10 µM [25]: 89.9 ± 1.4%
activity at 10 µM [26]: 83.3 ± 1.5%
activity at 10 µM [27]: 78.7 ± 0.2%
activity at 10 µM [28]: 69.8 ± 1.7%
activity at 10 µM [29]: 77.2 ± 2.3%
activity at 10 µM [30]: 97.8 ± 1.5%
activity at 10 µM [31]: 100.7 ± 0.4%
activity at 10 µM [32]: 93.3 ± 1.9%
activity at 10 µM [33]: 79.1 ± 1.6%
activity at 10 µM [34]: 81.4 ± 4.1%
activity at 10 µM [35]: 113.4 ± 0.1%
activity at 10 µM [36]: 98.2 ± 1.3%
